# Measurements reported in patent publication US12070458B2, “Therapeutic agent composition and method of use, for treatment of mild congnitive impairment, depression, and psychological disorders” (priority 2018, dated 2024).
# Experiments:
# [1] = tested on: patients with major depressive disorder; assay: Double-blind, randomized, placebo-controlled, active reference study in patients with major depressive disorder; assay type: in vivo, human; settings: for change from baseline in MADRS total score, Mean ± SD / MADRS total score, Difference to Placebo: week 6
# From the text: This randomized, double-blind, fixed-dose, placebo-controlled, active reference study recruited 32 randomized patients in accordance with the principles of Good Clinical Practice [ICH (1996). Harmonized Tripartite Guideline E6: Guideline for Good Clinical Practice (http://www.fda.gov/downloads/drugs/guidancecomplianceregulatoryinformation/gui dances/ucm073122.pdf)] and the Declaration of Helsinki [WMA (1964). Ethical Principles for Medical Research Involving Human Subjects (http://www.wma.net/en/30publications/10policies/b3/). World Medical Association.] Local ethics committees approved the study design and eligible patients gave their written informed consent before participating.
# Eligible patients were randomized equally (1:1:1:1) to one of the four treatment arms for a 6-week double-blind treatment period. Randomized patients were given 1-week wallet cards at each visit and were instructed to take two capsules per day, orally, at the same time every day (preferably in the morning). NA-831 was dosed at 20 mg/day or 40 mg/d for 6 week and venlafaxine at 75 mg/d over 6-week treatment period. Efficacy and tolerability were assessed at screening, baseline and after 1, 2, 3, 4, 5, and 6 week. Patients were contacted for a safety follow-up 4 week after the completion visit.
# Patients with MDD presenting with a current major depressive episode according to DSM-IV-TR criteria were included in the study if they were an outpatient of either sex, aged from 20 yr to 65 yr, (mean=39.7±8.5) (with a Montgomery—Åsberg Depression Rating Scale (MADRS) (Montgomery & Åsberg, 1979) total score ≥30 at the baseline visit. [Montgomery S Åsberg M (1979). A new depression scale designed to be sensitive to change. British Journal of Psychiatry 134 382-389.https://doi.org/10.1192/bjp.134.4.382]
# Patients were evaluated using the MADRS from baseline to week 6. Rater training was undertaken to increase inter-rater reliability, and was supervised by an experienced investigator. Only those investigators who had actively participated in rater training sessions prior to inclusion of patients into the study were allowed to rate patients. Patient ratings were assessed by the same investigator at each visit, whenever possible.
# All safety analyses were based on the all-patients-treated set (APT), comprising all randomized patients who took at least one dose of study medication. All efficacy analyses were based on a modified intent-to-treat set (ITT)—the full-analysis set (FAS), comprising all patients in the […] who had at least one valid post-baseline MADRS total score assessment.
# Four hypotheses were part of the primary efficacy analysis, which was fully adjusted for multiplicity using a hierarchical testing procedure at the 5% level of significance as long as the previous hypothesis was rejected. The order of testing was: no difference between the 20 mg dose vs. placebo at week 6, no difference between […] at week 6, no difference between 20 mg dose vs. placebo at week 1, and finally no difference between 40 mg dose vs. placebo at week 1. The statistical model was an analysis of covariance (ANCOVA) of the change from baseline in MADRS total score (FAS, LOCF) with treatment and site as fixed factors and the baseline MADRS score as a covariate. The primary efficacy analysis was repeated on observed cases (OC) data, using both an ANCOVA and a mixed model for repeated measurements (MMRM).
# All adverse effects (AEs) (including any change in concurrent illnesses or new illnesses) either observed by the investigator or reported spontaneously by the patient were recorded. AEs were coded using the lowest level term according to the Medical Dictionary for Regulatory Activities, version 10.0. As a post-hoc analysis, the safety database was searched at preferred-term and verbatim-term level for possible suicide-related AEs, as described by the FDA [Laughren (2006). Memorandum on Suicidality. (http://www.fda.gov/ohrms/dockets/ac/06/briefing/2006-4272b1-01-fda.pdf)].
# [2] = tested on: immobility behavior; assay: Mouse Forced Swim Test (mFST); assay type: in vivo, mice; settings: 1 mg/Kg i.v. thirty minutes before swim session
# Method: Forced Swim Test (FST) is an animal model used to assess antidepressant compounds in preclinical studies. The FST was performed similar to the method of Porsolt et al. with modifications (Porsolt R D, Bertin A, Jalfre M. Behavioral despair in mice: a primary screening test for antidepressants. Arch Int Pharmacodyn Thér 1977; 229:327-36).
# In this experiment, mice are forced to swim in an inescapable cylinder filled with water. Under these conditions, mice will initially try to escape and eventually develop immobility behavior; this behavior is interpreted as a passive stress-coping strategy or depression-like behavior. Swim tanks were positioned inside a box made of plastic. […] The duration of immobility was evaluated during the total 6 min of the test and expressed as duration (sec) of immobility. […]
# In order to avoid the risk of obtaining the false positive\negative effects in the FST caused by a possible influence of the tested drugs on the locomotor activity, spontaneous locomotor activity was measured using an animal activity meter Opto-Varimex-4 Auto-Track (Columbus Instruments, USA). […] Spontaneous locomotor activity was evaluated between the 2nd and the 6th min, which corresponds with the time interval analysed in the FST. […]
# Drug levels were 215 nM in the plasma. The NR2B receptor occupancy was determined to be 68%.
smiles,measurement,setting,value
"O=C1NCC(=O)N2CCC[C@@H]12 [cPG, cyclic Prolyl Glycine]","change from baseline in MADRS total score, Mean ± SD","[1]; LOCF, ANCOVA, 20 mg/day orally",−22.4 ± 1.0
same,"change from baseline in MADRS total score, Mean ± SD","[1]; LOCF, ANCOVA, 40 mg/d orally",−23.2 ± 1.0
same,"change from baseline in MADRS total score, Mean ± SD","[1]; MMRM, 20 mg/day orally",−22.3 ± 0.9
same,"change from baseline in MADRS total score, Mean ± SD","[1]; MMRM, 40 mg/d orally",−24.9 ± 1.1
same,"MADRS total score, Difference to Placebo","[1]; OC, ANCOVA, 20 mg/day orally",−5.7 ± 1.3
same,"change from baseline in MADRS total score, Mean ± SD","[1]; OC, ANCOVA, 20 mg/day orally",−22.3 ± 0.9
same,"MADRS total score, Difference to Placebo","[1]; OC, ANCOVA, 40 mg/d orally",−7.8 ± 1.3
same,"change from baseline in MADRS total score, Mean ± SD","[1]; OC, ANCOVA, 40 mg/d orally",−24.4 ± 1.0
same,tolerability,"[1]; human, in vivo",well tolerated
same,immobility time,[2],statistically significant decrease
